# Test system: tactile allodynia in OXPT-treated mice
# Test: Oxaliplatin (OXPT)-induced peripheral neuropathy, von Frey test
# Type: in vivo
# Protocol: In order to investigate the analgesic activity of the most promising compound 30 in a neuropathic pain model, we tested it in oxaliplatin (OXPT)-induced peripheral neuropathy, in which mechanical and cold allodynia result from impaired function of ion channels, among others. The early phase of neuropathic pain appears hours after OXPT administration, while the late phase develops days after OXPT. Thus, we tested compound 30 3 h and 7 days after the injection of OXPT. We investigated the influence of compound 30 on tactile allodynia using the von Frey method. Three hours after the administration of OXPT we observed a significant decrease in the mean value of force that caused paw withdrawal reaction (1.89 ± 0.04 g) (64.2% of the baseline) compared to nontreated animals (2.94 ± 0.06 g) (the baseline). Seven days after OXPT administration, the pain threshold was 2.00 ± 0.03 (68.0% of the baseline). […] In the late phase, the values of pain threshold were as follows 2.18 ± 0.06 g, 2.60 ± 0.08 g, and 2.91 ± 0.05 g, which correspond to 74.1%, 88.4%, and 98.9% of the baseline value.
# The experimental groups consisted of 6–12 adult male Albino Swiss mice (CD-1, 18–25 g). Each animal was tested only once. Immediately after the assay, the animals were sacrificed by cervical dislocation. Behavioral measurements were observed by trained observers. The in vivo antinociceptive assays were in accordance with Polish regulations and European Union Directive of 22 September 2010 (2010/63/EU). All procedures were carried out according to the rules of the International Council on Laboratory Animal Science (ICLAS) and were approved by the Local Ethical Committee in Cracow, Poland (approval No 104/2015, 111/2016, and 179/2017). The tested substances were suspended in 1% aqueous solution of Tween-80 and were injected i.p. 30 min prior to the test. Control group animals (negative control) were administered with an appropriate amount of vehicle (Tween-80, 1% aqueous solution, i.p.) 30 min prior to the test.
# The experimental in vivo procedures were previously reported for the formalin test; compounds 4 and 30 were tested in three doses—40, 80, 120 mg/kg (4), and 20, 40, 80 mg/kg (30). Before formalin application, different groups of animals were injected i.p. with vehicle (10 mL/kg, negative control). The in vivo procedure for the model of capsaicin-induced nociception was previously reported; the animals were pretreated with vehicle (10 mL/kg, negative control) and the dose–response of investigated compounds was evaluated at 40, 80, 120 mg/kg (4), and 20, 40, 80 mg/kg (30). The in vivo procedure for the model of OXPT-induced peripheral neuropathy was previously reported; the mice with developed tactile allodynia were pretreated i.p. with test compound 30 (20, 40, and 80 mg/kg) and vehicle.
# Data are presented as means ± standard error of the mean (SEM). The GraphPad Prism Software (v.5) was used to analyze the vast majority of data. Statistically significant differences between groups were calculated using one-way analysis of variance (ANOVA) and the post hoc Dunnett’s multiple comparison test or two-way analysis of variance (ANOVA). The criterion for significance was set at p < 0.05.
# [1] = early phase (3 h after OXPT), 20 mg/kg i.p.
# [2] = early phase (3 h after OXPT), 40 mg/kg i.p.
# [3] = early phase (3 h after OXPT), 80 mg/kg i.p.
# [4] = late phase (7 days after OXPT), 20 mg/kg i.p.
# [5] = late phase (7 days after OXPT), 40 mg/kg i.p.
# [6] = late phase (7 days after OXPT), 80 mg/kg i.p.
compound,measurement,setting,value
"O=C(NCCc1cccc(OC(F)(F)F)c1)C(c1ccccc1)N1C(=O)CCC1=O (stereo not drawn) [Compound 30, 2-(2,5-Dioxopyrrolidin-1-yl)-2-phenyl-N-(3-(trifluoromethoxy)phenethyl)acetamide]","pain sensitivity threshold (von Frey, force causing paw withdrawal)",[1],2.26 ± 0.08 g
same,"pain threshold, % of the baseline value",[1],76.8%
same,"pain sensitivity threshold (von Frey, force causing paw withdrawal)",[2],2.49 ± 0.05 g
same,"pain threshold, % of the baseline value",[2],84.7%
same,"pain sensitivity threshold (von Frey, force causing paw withdrawal)",[3],2.97 ± 0.05 g
same,"pain threshold, % of the baseline value",[3],101.0%
same,pain threshold (von Frey),[4],2.18 ± 0.06 g
same,"pain threshold, % of the baseline value",[4],74.1%
same,pain threshold (von Frey),[5],2.60 ± 0.08 g
same,"pain threshold, % of the baseline value",[5],88.4%
same,pain threshold (von Frey),[6],2.91 ± 0.05 g
same,"pain threshold, % of the baseline value",[6],98.9%

# Source: article PMC7699745, “The Search for New Anticonvulsants in a Group of (2,5-Dioxopyrrolidin-1-yl)(phenyl)Acetamides with Hybrid Structure—Synthesis and In Vivo/In Vitro Studies” (International Journal of Molecular Sciences, 2020)
